Results reported in patent US20050147527A1, “Microbial destruction using a gas phase decontaminant” (priority 2004, published 2005).
“And” between values parts separate entries of the source, which are not always exact repeats. Identical values can stand only once. Like-named read-outs stand apart in the source and are kept apart here.

Key:
[1] = test system: streptomycin-resistant E. coli; conditions: 180° F.; for Log Post-Disinfection (CFU/g) / Log Reduction (CFU/g): DT 18 min
Method: (§1) The following experiments were performed using a system in accordance with the present invention. Food crops were pruned of inedible roots, leaves, etc., and weighed. A given food crop was then inoculated with a single challenge microorganism. All challenge microorganisms were purchased from ATCC as streptomycin-resistant strains-Esherichia coli (E. coli), Staphylococcus aureus (S. aureus), and Salmonella choleraesuis (S. choleraesuis). […] After inoculation, the crops were left to dry for 30 minutes to 1 hour. The crops were then placed in the Ziploc® bag and into the vacuum chamber. […] Parameters such as vacuum pressure, dispensing time, and sterilization wait time were varied in order to arrive at some conclusion concerning the optimum conditions for effective disinfection of the food crops. After the disinfection cycle had ended, the crops were neutralized in 50 mL of 10% thiosulfate solution contained in a sterile mastication bag.
(§2) The bag was then placed in a masticator and pulverized for 2 minutes. The liquid contents were then serially diluted and plated onto the appropriate agar medium. The plates were incubated at 37° C. for 24 hours and plate counts were performed. […] A log reduction in terms of CFU/g was calculated by subtracting the plate counts of the disinfected food from that of its respective control, as shown in Table 1.
(§3) Lettuce was used as the food crop while streptomycin-resistant E. coli was chosen as the challenge microorganism. […] Each food crop was inoculated with streptomycin-resistant strains of E. coli, S. aureus, and S. choleraesuis in separate experiments and 3 minutes was used as the dispense time in every run.

[2] = test system: streptomycin-resistant S. choleraesuis; conditions: Radishes; dispense time 3 min; 180° F.; 18 inch Hg; wait 0 min
Method: as §1, §2, §3

[3] = test system: streptomycin-resistant S. aureus; conditions: 180° F.; for Log Post-Disinfection (CFU/g) / Log Reduction (CFU/g): DT 18 min
Method: as §1, §2, §3

[4] = test system: E. coli, S. aureus, S. choleraesuis
[5] = test system: Bacillus subtilis spores
Method: A protocol analogous to that used for the food crops was employed for spore testing on stainless steel coupons. 3-1.75 cm×3.75 cm stainless steel coupons were each inoculated (front & back) with a total of 100 μL of Bacillus subtilis spores. The spores were allowed to dry and the three coupons were aseptically transferred to a Ziploc® bag. The remaining protocol used was similar to that of the food crops except that each coupon was neutralized in 8 mL of 10% thiosulfate solution and each coupon's solution was serially diluted and plated onto media.

[6] = Carrots, VP 15 inch Hg, SW 10 min
[7] = Carrots, VP 15 inch Hg, SW 15 min
[8] = Carrots, VP 15 inch Hg, SW 20 min
[9] = Carrots, VP 15 inch Hg, SW 30 min
[10] = Carrots, VP 17 inch Hg, SW 5 min
[11] = Carrots, VP 18 inch Hg, SW 10 min
[12] = Lettuce, VP 15 inch Hg, SW 10 min
[13] = Lettuce, VP 15 inch Hg, SW 15 min
[14] = Radishes, VP 15 inch Hg, SW 10 min
[15] = Radishes, VP 15 inch Hg, SW 15 min
[16] = Table 3, Lettuce, dispense time 3 min, 18 inch Hg, wait 0 min
[17] = Radishes, VP 15 inch Hg, SW 30 min
[18] = Radishes, VP 20 inch Hg, SW 5 min
[19] = Radishes, VP 20 inch Hg, SW 10 min
[20] = Radishes, VP 20 inch Hg, SW 15 min
[21] = Radishes, dispense time 3 min, 18 inch Hg, wait 0 min
[22] = stainless steel coupons, 12 minute dispense time, 180° F., 18 inch Hg, wait 0 min

SMILES: OO [hydrogen peroxide]
- Log Post-Disinfection (CFU/g) [1, 6]: 0 CFU/g
- Log Reduction (CFU/g) [1, 6]: 4.90 CFU/g
- Log Post-Disinfection (CFU/g) [1, 7]: 0 CFU/g
- Log Reduction (CFU/g) [1, 7]: 4.90 CFU/g
- Log Post-Disinfection (CFU/g) [1, 8]: 0 CFU/g
- Log Reduction (CFU/g) [1, 8]: 5.45 CFU/g
- Log Post-Disinfection (CFU/g) [1, 9]: 0 CFU/g
- Log Reduction (CFU/g) [1, 9]: 4.90 CFU/g
- Log Post-Disinfection (CFU/g) [1, 10]: 0 CFU/g
- Log Reduction (CFU/g) [1, 10]: 5.45 CFU/g
- Log Post-Disinfection (CFU/g) [1, 11]: 0 CFU/g
- Log Reduction (CFU/g) [1, 11]: 5.45 CFU/g
- Log Post-Disinfection (CFU/g) [1, 12]: 0 CFU/g
- Log Reduction (CFU/g) [1, 12]: 6.38 CFU/g
- Log Post-Disinfection (CFU/g) [1, 13]: 1.93 CFU/g
- Log Reduction (CFU/g) [1, 13]: 4.31 CFU/g
- Log Post-Disinfection (CFU/g) [1, 14]: 2.85 CFU/g
- Log Reduction (CFU/g) [1, 14]: 2.95 CFU/g
- Log Post-Disinfection (CFU/g) [1, 15]: 3.73 CFU/g
- Log Reduction (CFU/g) [1, 15]: 2.07 CFU/g
- Log10 Post-Disinfection (CFU/g) [1, 16]: 0 CFU/g
- Log10 Reduction (CFU/g) [1, 16]: ≧6.23 CFU/g
- Log10 Post-Disinfection (CFU/g) [2]: 1.67 CFU/g and 1.95 CFU/g and 1.82 CFU/g
- Log Post-Disinfection (CFU/g) [3, 13]: 0 CFU/g
- Log Reduction (CFU/g) [3, 13]: 6.81 CFU/g
- Log Post-Disinfection (CFU/g) [3, 17]: 0 CFU/g
- Log Reduction (CFU/g) [3, 17]: 6.33 CFU/g
- Log Post-Disinfection (CFU/g) [3, 18]: 0 CFU/g
- Log Reduction (CFU/g) [3, 18]: 6.09 CFU/g
- Log Post-Disinfection (CFU/g) [3, 19]: 0 CFU/g
- Log Reduction (CFU/g) [3, 19]: 6.09 CFU/g
- Log Post-Disinfection (CFU/g) [3, 20]: 1.61 CFU/g
- Log Reduction (CFU/g) [3, 20]: 4.48 CFU/g
- Log10 Post-Disinfection (CFU/g) [3, 21]: 0 CFU/g
- Log10 Reduction (CFU/g) [3, 21]: ≧5.25 CFU/g
- log reductions for every combination of food crop and microbial challenge (Table 3) ([4]; 3 minutes dispense time): greater than 3
- average log reduction of all of the runs shown in Table 1 ([4]; all food crops, microbial challenges and parameters of Table 1): 4.63
- log reduction (lowest over all runs of Table 1) ([4]; no matter the food crop, microbial challenge or disinfection parameters): ≥ 2
- Log10 Post-Disinfection (CFU/cm^2) [5, 22]: 0 CFU/cm^2
- Log10 Reduction (CFU/cm^2) [5, 22]: 5.42 CFU/cm^2
- eradication of spores ([5]; within a 12 minute dispense time): completely eradicate spores
